Source: the NIST ThermoML archive (doi:10.1016/j.jct.2009.07.002)

Test: isobaric coefficient of expansion
Conditions: Liquid, DSC with Pressure Shift

CCCCCCCCCO [nonan-1-ol]
isobaric coefficient of expansion
Conditions	278.15 K	288.15 K	298.15 K	308.15 K	318.15 K	328.15 K	338.15 K	348.15 K
5000 kPa	0.000819 1/K	0.000805 1/K	0.000816 1/K	0.000829 1/K	0.000846 1/K	0.000863 1/K	0.000886 1/K	0.000912 1/K
10000 kPa	0.000795 1/K	0.000791 1/K	0.000798 1/K	0.00081 1/K	0.000826 1/K	0.00084 1/K	0.000858 1/K	0.000879 1/K
15000 kPa	0.000786 1/K	0.000772 1/K	0.000782 1/K	0.000792 1/K	0.000801 1/K	0.000815 1/K	0.000831 1/K	0.000853 1/K
20000 kPa	0.000759 1/K	0.000759 1/K	0.000762 1/K	0.000773 1/K	0.000785 1/K	0.000792 1/K	0.000807 1/K	0.000827 1/K
25000 kPa	0.000741 1/K	0.000743 1/K	0.000745 1/K	0.000753 1/K	0.000764 1/K	0.000775 1/K	0.000789 1/K	0.000806 1/K
30000 kPa	0.000733 1/K	0.000728 1/K	0.000732 1/K	0.000736 1/K	0.000748 1/K	0.000759 1/K	0.000773 1/K	0.000787 1/K
35000 kPa	0.000719 1/K	0.000716 1/K	0.00072 1/K	0.000723 1/K	0.000732 1/K	0.000743 1/K	0.000754 1/K	0.000768 1/K
40000 kPa	0.000704 1/K	0.000705 1/K	0.000705 1/K	0.00071 1/K	0.000715 1/K	0.000728 1/K	0.000736 1/K	0.000749 1/K
45000 kPa	0.000693 1/K	0.000698 1/K	0.000693 1/K	0.000695 1/K	0.000702 1/K	0.000715 1/K	0.000722 1/K	0.000734 1/K
50000 kPa	0.000685 1/K	0.000691 1/K	0.000682 1/K	0.000684 1/K	0.00069 1/K	0.0007 1/K	0.000708 1/K	0.000719 1/K
55000 kPa	0.000672 1/K	0.000677 1/K	0.000672 1/K	0.000673 1/K	0.000678 1/K	0.000687 1/K	0.000695 1/K	0.000705 1/K

CCCCCCCCO [octan-1-ol]
isobaric coefficient of expansion
Conditions	278.15 K	288.15 K	298.15 K	308.15 K	318.15 K	328.15 K	338.15 K	348.15 K
5000 kPa	0.000816 1/K	0.000817 1/K	0.000818 1/K	0.00084 1/K	0.000859 1/K	0.000877 1/K	0.0009 1/K	0.000928 1/K
10000 kPa	0.000798 1/K	0.000793 1/K	0.000799 1/K	0.000821 1/K	0.000837 1/K	0.00085 1/K	0.000873 1/K	0.000896 1/K
15000 kPa	0.00078 1/K	0.000774 1/K	0.000784 1/K	0.000801 1/K	0.000815 1/K	0.000827 1/K	0.000845 1/K	0.000865 1/K
20000 kPa	0.000755 1/K	0.000761 1/K	0.000764 1/K	0.000783 1/K	0.000793 1/K	0.000805 1/K	0.000822 1/K	0.000843 1/K
25000 kPa	0.000742 1/K	0.000746 1/K	0.000749 1/K	0.000762 1/K	0.000775 1/K	0.000787 1/K	0.000801 1/K	0.000821 1/K
30000 kPa	0.00073 1/K	0.000732 1/K	0.000736 1/K	0.000746 1/K	0.000758 1/K	0.000767 1/K	0.000783 1/K	0.0008 1/K
35000 kPa	0.000717 1/K	0.000715 1/K	0.000724 1/K	0.00073 1/K	0.000742 1/K	0.000751 1/K	0.000766 1/K	0.00078 1/K
40000 kPa	0.000704 1/K	0.000707 1/K	0.000714 1/K	0.000716 1/K	0.000727 1/K	0.000735 1/K	0.000746 1/K	0.000762 1/K
45000 kPa	0.00069 1/K	0.000692 1/K	0.000698 1/K	0.000702 1/K	0.000711 1/K	0.000719 1/K	0.000731 1/K	0.000745 1/K
50000 kPa	0.000683 1/K	0.000681 1/K	0.000687 1/K	0.000692 1/K	0.000698 1/K	0.000705 1/K	0.000717 1/K	0.000731 1/K
55000 kPa	0.000673 1/K	0.000671 1/K	0.000676 1/K	0.000678 1/K	0.000688 1/K	0.000692 1/K	0.000705 1/K	0.000717 1/K
